Data as given in article PMC3388080 (PLoS ONE, 2012).

Tested on: male Sprague-Dawley rats
Experiment: EEG/EMG/Tcore/LMA telemetry sleep study 2 (EMPA vs ZOL)
Format: in vivo, rat
Conditions: for REM:NR ratio: 6 h after dosing
Procedure: All rodent electroencephalograph (EEG) studies were performed at SRI International. Three groups of eight male Sprague-Dawley rats (300±25 g; Charles River, Wilmington, MA) were implanted with chronic recording devices (F40-EET, Data Sciences Inc., St Paul, MN) for continuous recordings of EEG, electromyograph (EMG), core body temperature (Tcore), and LMA via telemetry as previously described. Data recording and scoring were performed as previously reported (see also Supplemental Material and Methods). The EEG and EMG data were scored in 10 sec epochs for waking (W), rapid eye movement sleep (REM), and non-REM sleep (NR). Tcore and LMA (counts per minute) were analyzed as hourly means. Data from the EEG studies are reported in hourly means such that the hourly time ZT1 refers to the hour between time points ZT0 and ZT1.
For each of the three separate studies, a repeated measures counter-balanced design was employed in which each rat received five separate dosings. […] All dosings were administered ip in a volume of 2 ml/kg. A minimum of 3 d elapsed between doses. Dosing occurred during the middle of the rats’ normal active period at the start of ZT19 and was typically completed within 10 min. Animals were continuously recorded for 6 h prior to dosing and for 18 h following dosing.

With `CCN(Cc1cccnc1)C(=O)CN(c1ccc(OC)nc1)S(=O)(=O)c1ccccc1C` [EMPA, N-(Ethyl-2-[(6-methoxy-pyridin-3-yl)-(toluene-2-sulfonyl)-amino]-N-pyridin-3-ylmethyl-acetamide)] the “LMA (in words)” value (100 mg/kg ip, across 6 h, vs vehicle) was “LMA was decreased”, the “cumulative NR (in words)” value (100 mg/kg ip, first 4 and 6 h periods) was “increased cumulative NR” and the NR bout duration (6 h Average, 30 mg/kg ip) was 1.43 ±0.14. The REM bout duration (6 h Average, 30 mg/kg ip) was 0.88 ± 0.09, the W bout duration (6 h Average, 30 mg/kg ip) was 5.35 ±0.77 and the NR bout duration (6 h Average, 100 mg/kg ip) was 1.28 ± 0.12^+. The REM bout duration (6 h Average, 100 mg/kg ip) was 0.96 ± 0.09, the W bout duration (6 h Average, 100 mg/kg ip) was 3.54 ± 0.20 and the NR bout duration (6 h Average, EMPA 10 mg/kg ip) was 1.34 ± 0.17. The REM bout duration (6 h Average, EMPA 10 mg/kg ip) was 0.79 ± 0.09, the W bout duration (6 h Average, EMPA 10 mg/kg ip) was 5.56 ± 0.52 and the “Number of NR bouts” value (6 h Total, 30 mg/kg ip) was 68.80 ± 7.18. For the same compound, the “Number of REM bouts” value (6 h Total, 30 mg/kg ip) was 22.10 ± 3.30^+, the “Number of W bouts” value (6 h Total, 30 mg/kg ip) was 51.30 ± 4.95 and the “Number of NR bouts” value (6 h Total, 100 mg/kg ip) was 84.80 ± 5.06. For the same compound, the “Number of REM bouts” value (6 h Total, 100 mg/kg ip) was 20.00 ± 1.93^+, the “Number of W bouts” value (6 h Total, 100 mg/kg ip) was 65.10 ± 3.37 and the “Number of NR bouts” value (6 h Total, EMPA 10 mg/kg ip) was 68.80 ±6.22. The “Number of REM bouts” value (6 h Total, EMPA 10 mg/kg ip) was 18.10 ± 2.28^+, the “Number of W bouts” value (6 h Total, EMPA 10 mg/kg ip) was 50.20 ±5.70 and the “REM:NR ratio” value (10 mg/kg ip (EMPA)) was 0.16±0.019^+. For the same compound, the “REM:NR ratio” value (30 mg/kg ip) was 0.21±0.032^+, the “REM:NR ratio” value (100 mg/kg ip) was 0.18±0.027^+ and the NR bout duration (ZT19, 30 mg/kg ip) was 1.27± 0.15^+. For the same compound, the “Number of NR bouts” value (ZT19, 30 mg/kg ip) was 9.90 ± 1.60, the “Number of REM bouts” value (ZT19, 30 mg/kg ip) was 1.20± 0.49 and the “Number of W bouts” value (ZT19, 30 mg/kg ip) was 6.20± 0.98. The REM bout duration (ZT19, 30 mg/kg ip) was 0.62± 0.22, the W bout duration (ZT19, 30 mg/kg ip) was 11.89± 5.40 and the NR bout duration (ZT19, 100 mg/kg ip) was 1.11± 0.19^+. For the same compound, the “Number of NR bouts” value (ZT19, 100 mg/kg ip) was 10.80± 2.39, the “Number of REM bouts” value (ZT19, 100 mg/kg ip) was 0.90± 0.46 and the “Number of W bouts” value (ZT19, 100 mg/kg ip) was 9.80± 2.48. For the same compound, the REM bout duration (ZT19, 100 mg/kg ip) was 0.86± 0.19, the W bout duration (ZT19, 100 mg/kg ip) was 13.14± 5.99 and the NR bout duration (ZT19, EMPA 10 mg/kg ip) was 1.60± 0.25^+. The “Number of NR bouts” value (ZT19, EMPA 10 mg/kg ip) was 7.40 ± 2.00, the “Number of REM bouts” value (ZT19, EMPA 10 mg/kg ip) was 1.60± 0.67 and the “Number of W bouts” value (ZT19, EMPA 10 mg/kg ip) was 4.60± 1.25. For the same compound, the REM bout duration (ZT19, EMPA 10 mg/kg ip) was 0.64± 0.15, the W bout duration (ZT19, EMPA 10 mg/kg ip) was 16.42± 5.00 and the NR bout duration (ZT20, 30 mg/kg ip) was 1.50± 0.28^+. The “Number of NR bouts” value (ZT20, 30 mg/kg ip) was 12.50± 2.18, the “Number of REM bouts” value (ZT20, 30 mg/kg ip) was 4.40± 0.96^+ and the “Number of W bouts” value (ZT20, 30 mg/kg ip) was 8.30± 1.27. The REM bout duration (ZT20, 30 mg/kg ip) was 0.87± 0.13, the W bout duration (ZT20, 30 mg/kg ip) was 9.83± 5.62 and the NR bout duration (ZT20, 100 mg/kg ip) was 1.86± 0.28^+. The “Number of NR bouts” value (ZT20, 100 mg/kg ip) was 16.50± 2.03, the “Number of REM bouts” value (ZT20, 100 mg/kg ip) was 5.00± 1.12^+ and the “Number of W bouts” value (ZT20, 100 mg/kg ip) was 11.60± 1.11. The REM bout duration (ZT20, 100 mg/kg ip) was 0.88± 0.08, the W bout duration (ZT20, 100 mg/kg ip) was 2.46± 0.62 and the NR bout duration (ZT20, EMPA 10 mg/kg ip) was 1.15± 0.15^+. The “Number of NR bouts” value (ZT20, EMPA 10 mg/kg ip) was 14.00±2.52, the “Number of REM bouts” value (ZT20, EMPA 10 mg/kg ip) was 4.10± 1.11 and the “Number of W bouts” value (ZT20, EMPA 10 mg/kg ip) was 10.70± 1.85. The REM bout duration (ZT20, EMPA 10 mg/kg ip) was 0.90± 0.18, the W bout duration (ZT20, EMPA 10 mg/kg ip) was 9.37± 5.67 and the NR bout duration (ZT21, 30 mg/kg ip) was 1.52± 0.21. The “Number of NR bouts” value (ZT21, 30 mg/kg ip) was 15.90± 2.21, the “Number of REM bouts” value (ZT21, 30 mg/kg ip) was 5.80± 1.35 and the “Number of W bouts” value (ZT21, 30 mg/kg ip) was 11.70± 1.55. It also gave an REM bout duration (ZT21, 30 mg/kg ip) of 1.01 ± 0.11, a W bout duration (ZT21, 30 mg/kg ip) of 3.04± 0.83 and an NR bout duration (ZT21, 100 mg/kg ip) of 1.17± 0.11. For the same compound, the “Number of NR bouts” value (ZT21, 100 mg/kg ip) was 17.00± 2.91.
